Results on 44 compounds are retold here after ChEMBL document CHEMBL1641505, “17β-HSD2 inhibitors for the treatment of osteoporosis: Identification of a promising scaffold” (Bioorg Med Chem, 2011).

As usually defined, the inhibition is the drop in the measured response relative to a control, in per cent. The low end stands for little suppression, the high end for strong suppression. Broadly, the IC50 is the concentration that inhibits the measured activity by half. A high value points to weaker potency.

Experiment [1] concerns the target T1, 17-beta-hydroxysteroid dehydrogenase type 2 (Homo sapiens) (UniProt P37059).
T1 sequence (whole entry): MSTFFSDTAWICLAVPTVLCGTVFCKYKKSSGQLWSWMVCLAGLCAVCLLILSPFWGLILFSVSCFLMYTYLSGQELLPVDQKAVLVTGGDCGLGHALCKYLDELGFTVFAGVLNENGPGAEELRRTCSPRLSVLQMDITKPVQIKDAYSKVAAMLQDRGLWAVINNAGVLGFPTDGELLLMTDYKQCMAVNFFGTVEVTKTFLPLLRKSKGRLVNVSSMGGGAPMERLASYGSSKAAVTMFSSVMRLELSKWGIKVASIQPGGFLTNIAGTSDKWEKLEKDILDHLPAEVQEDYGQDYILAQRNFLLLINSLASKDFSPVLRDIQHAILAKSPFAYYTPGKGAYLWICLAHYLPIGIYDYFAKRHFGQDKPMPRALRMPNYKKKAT
The experiment can be described thus: Inhibition of [3H]E2 binding to human placental 17beta-HSD2 at 1 uM after 20 mins.

Experiment [2] addresses T2, 17-beta-hydroxysteroid dehydrogenase type 1 (Homo sapiens) (UniProt P14061).
T2 sequence (whole entry): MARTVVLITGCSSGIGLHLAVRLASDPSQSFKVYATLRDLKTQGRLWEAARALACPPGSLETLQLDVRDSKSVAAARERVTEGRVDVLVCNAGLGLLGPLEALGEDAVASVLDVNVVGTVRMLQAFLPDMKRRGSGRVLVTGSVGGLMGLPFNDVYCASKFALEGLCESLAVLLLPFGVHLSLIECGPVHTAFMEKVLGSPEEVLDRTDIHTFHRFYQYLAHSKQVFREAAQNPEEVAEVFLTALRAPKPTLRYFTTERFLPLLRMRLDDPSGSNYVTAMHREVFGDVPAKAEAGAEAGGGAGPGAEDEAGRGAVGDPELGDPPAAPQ
The experiment can be described thus: Inhibition of [3H]E1 binding to human placental 17beta-HSD1 at 1 uM after 20 mins.

Experiment [3] addresses T3, 17-beta-hydroxysteroid dehydrogenase type 2 (Homo sapiens, UniProt P37059).
T3 sequence (P37059 whole entry): T1 sequence (whole entry)
As to the kind of experiment: Inhibition of [3H]E2 binding to human placental 17beta-HSD2 after 20 mins.

Experiment [4] concerns the target T4, 17-beta-hydroxysteroid dehydrogenase type 1 (Homo sapiens, UniProt P14061).
T4 sequence (P14061 whole entry): T2 sequence (whole entry)
The experiment can be described thus: Inhibition of [3H]E1 binding to human placental 17beta-HSD1 after 20 mins.

The species named for a further experiment is Homo sapiens. As to the kind of experiment: Selectivity ratio of IC50 for human placental 17beta-HSD1 to IC50 for human placental 17beta-HSD2.
Experiment [5] addresses T5, Estrogen receptor (Homo sapiens) (UniProt P03372).
T5 sequence (whole entry): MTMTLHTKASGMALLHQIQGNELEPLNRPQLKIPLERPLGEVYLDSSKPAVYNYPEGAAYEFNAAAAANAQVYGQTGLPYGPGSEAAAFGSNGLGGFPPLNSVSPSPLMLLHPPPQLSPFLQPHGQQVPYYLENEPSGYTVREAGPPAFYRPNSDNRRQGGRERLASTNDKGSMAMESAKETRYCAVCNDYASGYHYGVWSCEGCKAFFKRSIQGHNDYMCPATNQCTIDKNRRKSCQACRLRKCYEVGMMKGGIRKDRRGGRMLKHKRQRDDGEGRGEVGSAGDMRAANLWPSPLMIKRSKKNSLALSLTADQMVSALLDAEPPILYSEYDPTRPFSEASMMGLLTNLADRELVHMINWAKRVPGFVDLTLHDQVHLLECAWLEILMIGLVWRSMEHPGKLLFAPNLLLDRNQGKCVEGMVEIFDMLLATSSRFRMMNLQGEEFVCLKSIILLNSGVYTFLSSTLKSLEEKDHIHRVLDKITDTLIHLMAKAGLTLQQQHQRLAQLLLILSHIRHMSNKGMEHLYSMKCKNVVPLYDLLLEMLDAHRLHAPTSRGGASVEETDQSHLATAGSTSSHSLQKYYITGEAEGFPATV
The experiment can be described thus: Displacement of [3H]E2 from human recombinant ERalpha by liquid scintillation counting relative to estradiol. On the technique in general: In a radioligand displacement assay an active substance lowers the binding of a labelled ligand.

The target in experiment [6] is Estrogen receptor beta (Homo sapiens) (UniProt Q92731). The experiment can be described thus: Displacement of [3H]E2 from human recombinant ERbeta by liquid scintillation counting relative to estradiol.

Structures are written as SMILES. A value given as a limit tells only on which side of the number the result lay.

Chain of Estrogen receptor beta (Homo sapiens) (Q92731 whole entry): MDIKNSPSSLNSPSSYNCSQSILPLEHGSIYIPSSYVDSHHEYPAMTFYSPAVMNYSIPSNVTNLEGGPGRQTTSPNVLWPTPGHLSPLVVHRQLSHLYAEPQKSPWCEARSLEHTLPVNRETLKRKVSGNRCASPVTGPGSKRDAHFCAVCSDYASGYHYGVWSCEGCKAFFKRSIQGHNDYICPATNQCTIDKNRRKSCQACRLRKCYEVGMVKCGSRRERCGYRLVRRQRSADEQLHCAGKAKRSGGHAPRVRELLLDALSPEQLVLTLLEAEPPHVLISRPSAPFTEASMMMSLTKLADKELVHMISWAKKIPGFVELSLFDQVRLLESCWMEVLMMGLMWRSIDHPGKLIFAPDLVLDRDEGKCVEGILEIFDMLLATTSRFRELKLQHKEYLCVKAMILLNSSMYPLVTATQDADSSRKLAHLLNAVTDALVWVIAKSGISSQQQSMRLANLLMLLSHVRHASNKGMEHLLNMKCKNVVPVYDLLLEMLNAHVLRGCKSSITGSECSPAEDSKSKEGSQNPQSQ

Consider `OCc1ccc(-c2ccc3c(O)cccc3c2)cc1`, for which the inhibition in experiment [1] turned out to be 31%; in experiment [2], 14%.
For the compound `COc1ccncc1-c1ccc2c(O)cccc2c1`, the inhibition in experiment [1] and in experiment [2] was less than 10% each time.
For the compound `COc1ccc(CC(=O)N(C)c2cccc(-c3ccc(CO)cc3)c2)cc1`, the inhibition in experiment [1] and in experiment [2] was less than 10% in each case.
Turning to `Oc1cccc2cc(-c3ccc(F)cc3)ccc12`, the inhibition in experiment [1] and in experiment [2] was less than 10% each time.
The compound `Oc1cccc(-c2ccc3ccccc3c2)c1` came in with an inhibition in experiment [1] of 12%.
On to `CNC(=O)c1cccc(-c2ccc3c(O)cccc3c2)c1`, for which the inhibition in experiment [1] was 43%; in experiment [2], less than 10%.
Turning to `COc1ccc(C(=O)N(C)c2cccc(-c3ccc(OC)cc3)c2)cc1`, the inhibition in experiment [1] is 20%; in experiment [2] it was less than 10%.
In experiment [1], `Oc1ccc2cc(-c3ccccc3O)ccc2c1` yielded an inhibition of less than 10%.
Regarding `CS(=O)(=O)Nc1ccc(-c2ccc3c(O)cccc3c2)cc1`, the figures for the inhibition in experiment [1] and in experiment [2] were 75% and 52%, respectively. Moreover, the 50% inhibitory concentration (IC50) in experiment [3] worked out at 600 nM; in experiment [4], 614 nM. The Ratio IC50 in the experiment filed under Homo sapiens was found to be 1.
Regarding `Cc1cccc(S(=O)(=O)Nc2ccc(-c3ccc(CO)cc3)cc2)c1`, the values for the inhibition in experiment [1] and in experiment [2] were 12% and less than 10%, respectively.
Turning to `Oc1ccc(-c2ccc3c(O)cccc3c2)cc1`, the values for the inhibition in experiment [1] and in experiment [2] were 74% and 20%, respectively. Moreover, the Ratio IC50 in the experiment listed under Homo sapiens turned out to be 8. The Activity in experiment [5] and in experiment [6] was 5% in each case.
With `CN(C(=O)c1ccccc1)c1cccc(-c2ccc(O)cc2)c1`, the results for the inhibition in experiment [1] and in experiment [2] were 46% and less than 10%, respectively.
Take `COc1ccc(-c2cccc(N(C)C(=O)c3cccc(OC)c3)c2)cc1`: the inhibition was 13% in experiment [1] and 16% in experiment [2].
On to `CC(=O)Nc1cccc(-c2ccc(CO)cc2)c1`, for which the inhibition in experiment [1] and in experiment [2] was less than 10% in each case.
As to `CC(=O)Nc1cccc(-c2ccc3c(O)cccc3c2)c1`, the inhibition is 64% in experiment [1] and 12% in experiment [2]. Moreover, the results for the IC50 in experiment [3] and in experiment [4] were 696 nM and 8520 nM, respectively. Also, the Ratio IC50 in the experiment filed under Homo sapiens is 12.
For `O=C(O)c1ccc(-c2ccc3c(O)cccc3c2)cc1`, the inhibition was 16% in experiment [1] and less than 10% in experiment [2].
In the same order, the values of `CS(=O)(=O)Nc1ccc(-c2ccc(CO)cc2)cc1` are less than 10% and less than 10%.
As to `Oc1cccc2cc(-c3ccccc3)ccc12`, the values for the inhibition in experiment [1] and in experiment [2] were 20% and less than 10%, respectively.
Regarding `CNC(=O)c1ccc(-c2ccc3c(O)cccc3c2)cc1`, the inhibition was 13% in experiment [1] and less than 10% in experiment [2].
In the case of `COc1ccc(C(=O)N(C)c2cccc(-c3ccc(CO)cc3)c2)cc1`, the inhibition was 14% in experiment [1] and less than 10% in experiment [2].
The matching figures for `O=[N+]([O-])c1ccc(-c2ccc3c(O)cccc3c2)cc1`: 13% and 15%.
As to `CN(C(=O)c1ccccc1)c1cccc(-c2ccc(CO)cc2)c1`, the inhibition in experiment [1] and in experiment [2] was less than 10% throughout.
As for `Oc1cccc2cc(-c3ccoc3)ccc12`, the inhibition is 13% in experiment [1] and less than 10% in experiment [2].
Consider `COc1ccc(CC(=O)N(C)c2cccc(-c3ccc(OC)cc3)c2)cc1`, for which the inhibition in experiment [1] was determined as 10%; in experiment [2], 25%.
Take `COc1cccc(CC(=O)N(C)c2cccc(-c3ccc(CO)cc3)c2)c1`: the results for the inhibition in experiment [1] and in experiment [2] were 12% and less than 10%, respectively.
Regarding `CNS(=O)(=O)c1ccc(-c2ccc3c(O)cccc3c2)cc1`, the values for the inhibition in experiment [1] and in experiment [2] were 57% and 12%, respectively.
Take `CS(=O)(=O)Nc1ccc(-c2ccc(O)cc2)cc1`: the inhibition in experiment [1] and in experiment [2] was less than 10% each time.
Turning to `Oc1ccc2cc(-c3ccccc3)ccc2c1`, the inhibition is 17% in experiment [1] and 44% in experiment [2].
The matching figures for `O=C(Nc1cccc(-c2ccc(CO)cc2)c1)c1ccccc1`: less than 10% and less than 10%.
With `Oc1cccc2cc(-c3cncnc3)ccc12`, the inhibition in experiment [1] and in experiment [2] was less than 10% each time.
For the compound `CC(=O)Nc1cccc(-c2ccc(O)cc2)c1`, the inhibition in experiment [1] and in experiment [2] was less than 10% in each case.
Take `COc1ccc(-c2ccc3c(O)cccc3c2)cc1`: the inhibition in experiment [1] is 20%; in experiment [2], 28%.
`CN(C(=O)Cc1cccc(O)c1)c1cccc(-c2ccc(O)cc2)c1` showed an inhibition in experiment [2] of less than 10%.
For the compound `Oc1cccc(-c2ccc3cc(O)ccc3c2)c1`, the inhibition in experiment [2] came to 100%. In the experiment listed under Homo sapiens, the Ratio IC50 was found to be 0.02.
For the compound `Oc1cccc2cc(-c3ccncc3)ccc12`, the inhibition in experiment [1] was 26%; in experiment [2] it was less than 10%.
Turning to `COc1ccc(-c2cccc(N(C)C(=O)Cc3cccc(OC)c3)c2)cc1`, the inhibition in experiment [1] and in experiment [2] was less than 10% throughout.
With `CS(=O)(=O)Nc1cccc(-c2ccc3c(O)cccc3c2)c1`, the inhibition in experiment [1] is 22%; in experiment [2] it was 19%.
Turning to `O=C(Nc1cccc(-c2ccc3c(O)cccc3c2)c1)c1ccccc1`, the inhibition in experiment [1] and in experiment [2] was less than 10% in each case.
For `O=C(Nc1cccc(-c2ccc(O)cc2)c1)c1ccccc1`, the inhibition in experiment [1] and in experiment [2] was less than 10% throughout.
As to `Cc1cccc(S(=O)(=O)Nc2ccc(-c3ccc(O)cc3)cc2)c1`, the inhibition in experiment [1] was 14%; in experiment [2] it was less than 10%.
In turn, `Oc1cccc(-c2ccc3c(O)cccc3c2)c1` displayed an inhibition in experiment [1] of 32%.
Take `CC(=O)c1ccc(-c2ccc3c(O)cccc3c2)cc1`: the inhibition is less than 10% in experiment [1] and 16% in experiment [2].
With `N#Cc1ccc(-c2ccc3c(O)cccc3c2)cc1`, the inhibition in experiment [1] stood at 12%; in experiment [2] it was 16%.
Regarding `COc1cccc(C(=O)N(C)c2cccc(-c3ccc(CO)cc3)c2)c1`, the inhibition in experiment [1] was 15%; in experiment [2], less than 10%.
